Results as given in US20110039762A1, “TARGETED ANTIMICROBIAL MOIETIES” (C3 JIAN, INC., priority 2009, published 2011).
“Also recorded” adds a separate entry of the source.

Each substance was assayed on microorganisms (e.g., bacteria, yeasts, fungi) (assay: Targeting peptide binding to target microorganisms (Table 3)). Conditions: microorganism the targeting peptide binds; binding in aqueous buffers varied by peptide solubility, preferably 1x PBS.

| Substance | Target(s) |
| --- | --- |
| 1T-3 (VLGIAGGLDAYGELVGGN; Peptide with targeting and/or antimicrobial activity) [Peptide 1T-3] | S. mutans; also recorded: S. gordonii |
| 1T-4 (LDAYGELVGGN; Peptide with targeting and/or antimicrobial activity) [Peptide 1T-4] | S. gordonii; also recorded: S. sanguinis; also recorded: S. oralis; also recorded: V. atypica; also recorded: L. casei; also recorded: S. mutans |
| 1T-6 (KFINGVLSQFVLERK; Peptide with targeting and/or antimicrobial activity) [Peptide 1T-6] | S. mutans |
| 1T-7 (SQRIIEPVKSPQPYPGFSVS; Peptide with targeting and/or antimicrobial activity) [Peptide 1T-7] | M. xanthus |
| 1T-8 (FSVAACGEQRAVTFVLLIEDLI; Peptide with targeting and/or antimicrobial activity) [Peptide 1T-8] | M. xanthus |
| 1T-9 (WAWAESPRCVSTRSNIHALAFRVEVAALT; Peptide with targeting and/or antimicrobial activity) [Peptide 1T-9] | M. xanthus |
| 1T-10 (SPAGLPGDGDEA; Peptide with targeting and/or antimicrobial activity) [Peptide 1T-10] | M. xanthus |
| 1T-11 (RISE; Peptide with targeting and/or antimicrobial activity) [Peptide 1T-11] | S. mutans; also recorded: S. epidermidis; also recorded: P. aeruginosa |
| 1T-12 (FGNIFKGLKDVIETIVKWTAAK; Peptide with targeting and/or antimicrobial activity) [Peptide 1T-12] | C. xerosis; also recorded: C. striatum; also recorded: S. epidermidis; also recorded: S. mutans |
| 1T-13 (FRSPCINNNSLQPPGVYPAR; Peptide with targeting and/or antimicrobial activity) [Peptide 1T-13] | S. aureus; also recorded: S. epidermidis; also recorded: P. aeruginosa |
| 1T-14 (ALAGLAGLISGK; Peptide with targeting and/or antimicrobial activity) [Peptide 1T-14] | S. mutans; also recorded: S. aureus; also recorded: S. epidermidis; also recorded: C. xerosis |
| 1T-15 (DVILRVEAQ; Peptide with targeting and/or antimicrobial activity) [Peptide 1T-15] | S. mutans |
| 1T-16 (IDMR; Peptide with targeting and/or antimicrobial activity) [Peptide 1T-16] | P. aeruginosa |
| 1T-17 (NNAIVYIS; Peptide with targeting and/or antimicrobial activity) [Peptide 1T-17] | S. mutans |
| 1T-18 (YSKTLHFAD; Peptide with targeting and/or antimicrobial activity) [Peptide 1T-18] | S. aureus; also recorded: S. epidermidis; also recorded: C. striatum; also recorded: P. aeruginosa |
| 1T-19 (PGAFRNPQMPRG; Peptide with targeting and/or antimicrobial activity) [Peptide 1T-19] | S. aureus; also recorded: S. epidermidis; also recorded: P. aeruginosa |
| 1T-20 (PALVDLSNKEAVWAVLDDHS; Peptide with targeting and/or antimicrobial activity) [Peptide 1T-20] | S. mutans; also recorded: P. aeruginosa |
| 1T-21 (YVEEAVRAALKKEARISTEDTPVNLPSFDC; Peptide with targeting and/or antimicrobial activity) [Peptide 1T-21] | S. mutans; also recorded: P. aeruginosa |
| 1T-22 (VPLDDGTRRPEVARNRDKDRED; Peptide with targeting and/or antimicrobial activity) [Peptide 1T-22] | S. epidermidis; also recorded: P. aeruginosa |
| 1T-23 (PALVDLSNKEAVWAVLDDHS; Peptide with targeting and/or antimicrobial activity) [Peptide 1T-23] | S. mutans; also recorded: P. aeruginosa |
